According to US9469650B2, “Melampomagnolide B derivatives” (BOARD OF TRUSTEES OF THE UNIVERSITY OF ARKANSAS, priority 2013, dated 2016):

What was measured:
[1] = test system: CCRF-CEM; assay: panel of 60 human tumor cell lines, growth inhibition (Leukemia)
[2] = test system: MOLT-4; assay: as above; details: MOLT-4
[3] = test system: SR; assay: as above
[4] = test system: MDA-MB-435; assay: panel of 60 human tumor cell lines, growth inhibition (Melanoma); details: MDA-MB-435
[5] = test system: SK-MEL-28; assay: as above; details: SK-MEL-28
[6] = test system: SK-MEL-5; assay: as above; details: 8K-MEL-5
[7] = test system: SF-539; assay: panel of 60 human tumor cell lines, growth inhibition (CNS Cancer); details: SF-539
[8] = test system: COLO 205; assay: panel of 60 human tumor cell lines, growth inhibition (Colon Cancer); details: COLO 205
[9] = test system: HT29; assay: as above; details: HT29
[10] = test system: KM12; assay: as above; details: KM12

## C=C1C(=O)O[C@H]2[C@H]1CC/C(COC(=O)N1CCN(C)CC1)=C\CC[C@@]1(C)O[C@@H]21 [JVM 2-44]
[1]
  GI50: 3.06 µM
  TGI: 1.84E−5
[1]; Log10 Concentration −4.0
  Mean Optical Densities: 0.393
  Percent Growth: −25%
[1]; Log10 Concentration −5.0
  Mean Optical Densities: 0.689
  Percent Growth: 9%
[1]; Log10 Concentration −6.0
  Mean Optical Densities: 2.185
  Percent Growth: 89%
[1]; Log10 Concentration −7.0
  Mean Optical Densities: 2.250
  Percent Growth: 92%
[1]; Log10 Concentration −8.0
  Mean Optical Densities: 2.265
  Percent Growth: 93%
[2]
  GI50: 5.49 µM
  TGI: 3.43E−5
[2]; Log10 Concentration −4.0
  Mean Optical Densities: 0.453
  Percent Growth: −30%
[2]; Log10 Concentration −5.0
  Mean Optical Densities: 1.062
  Percent Growth: 35%
[2]; Log10 Concentration −6.0
  Mean Optical Densities: 1.734
  Percent Growth: 92%
[2]; Log10 Concentration −7.0
  Mean Optical Densities: 1.794
  Percent Growth: 98%
[2]; Log10 Concentration −8.0
  Mean Optical Densities: 1.889
  Percent Growth: 106%
[3]
  GI50: 2.81 µM
  TGI: 3.33E−5
[3]; Log10 Concentration −4.0
  Mean Optical Densities: 0.332
  Percent Growth: −14%
[3]; Log10 Concentration −5.0
  Mean Optical Densities: 0.534
  Percent Growth: 16%
[3]; Log10 Concentration −6.0
  Mean Optical Densities: 1.105
  Percent Growth: 78%
[3]; Log10 Concentration −7.0
  Mean Optical Densities: 1.224
  Percent Growth: 91%
[3]; Log10 Concentration −8.0
  Mean Optical Densities: 1.227
  Percent Growth: 91%
[4]
  GI50: 7.64 µM
  TGI: 2.27E−5
[4]; Log10 Concentration −4.0
  Mean Optical Densities: 0.109
  Percent Growth: −80%
[4]; Log10 Concentration −5.0
  Mean Optical Densities: 1.343
  Percent Growth: 44%
[4]; Log10 Concentration −6.0
  Mean Optical Densities: 2.253
  Percent Growth: 94%
[4]; Log10 Concentration −7.0
  Mean Optical Densities: 2.240
  Percent Growth: 93%
[4]; Log10 Concentration −8.0
  Mean Optical Densities: 2.396
  Percent Growth: 102%
[5]
  GI50: 7.03 µM
  TGI: 2.21E−5
[5]; Log10 Concentration −4.0
  Mean Optical Densities: 0.108
  Percent Growth: −80%
[5]; Log10 Concentration −5.0
  Mean Optical Densities: 0.950
  Percent Growth: 42%
[5]; Log10 Concentration −6.0
  Mean Optical Densities: 1.424
  Percent Growth: 93%
[5]; Log10 Concentration −7.0
  Mean Optical Densities: 1.424
  Percent Growth: 93%
[5]; Log10 Concentration −8.0
  Mean Optical Densities: 1.458
  Percent Growth: 96%
[6]
  GI50: 16.1 µM
  TGI: 3.06E−5
[6]; Log10 Concentration −4.0
  Mean Optical Densities: 0.067
  Percent Growth: −91%
[6]; Log10 Concentration −5.0
  Mean Optical Densities: 2.878
  Percent Growth: 87%
[6]; Log10 Concentration −6.0
  Mean Optical Densities: 3.118
  Percent Growth: 97%
[6]; Log10 Concentration −7.0
  Mean Optical Densities: 3.182
  Percent Growth: 100%
[6]; Log10 Concentration −8.0
  Mean Optical Densities: 3.116
  Percent Growth: 97%
[7]
  GI50: 5.01 µM
  TGI: 1.99E−5
[7]; Log10 Concentration −4.0
  Mean Optical Densities: 0.121
  Percent Growth: −79%
[7]; Log10 Concentration −5.0
  Mean Optical Densities: 1.049
  Percent Growth: 34%
[7]; Log10 Concentration −6.0
  Mean Optical Densities: 1.761
  Percent Growth: 87%
[7]; Log10 Concentration −7.0
  Mean Optical Densities: 1.799
  Percent Growth: 89%
[7]; Log10 Concentration −8.0
  Mean Optical Densities: 1.915
  Percent Growth: 97%
[8]
  GI50: 4.44 µM
  TGI: 1.76E−5
[8]; Log10 Concentration −4.0
  Mean Optical Densities: 0.159
  Percent Growth: −67%
[8]; Log10 Concentration −5.0
  Mean Optical Densities: 0.767
  Percent Growth: 22%
[8]; Log10 Concentration −6.0
  Mean Optical Densities: 1.790
  Percent Growth: 101%
[8]; Log10 Concentration −7.0
  Mean Optical Densities: 1.715
  Percent Growth: 95%
[8]; Log10 Concentration −8.0
  Mean Optical Densities: 1.784
  Percent Growth: 100%
[9]
  GI50: 5.54 µM
  TGI: 1.95E−5
[9]; Log10 Concentration −4.0
  Mean Optical Densities: 0.873
  Percent Growth: −70%
[9]; Log10 Concentration −5.0
  Mean Optical Densities: 0.502
  Percent Growth: 28%
[9]; Log10 Concentration −6.0
  Mean Optical Densities: 1.268
  Percent Growth: 112%
[9]; Log10 Concentration −7.0
  Mean Optical Densities: 1.248
  Percent Growth: 110%
[9]; Log10 Concentration −8.0
  Mean Optical Densities: 1.216
  Percent Growth: 107%
[10]
  GI50: 14.2 µM
  TGI: 3.13E−5
[10]; Log10 Concentration −4.0
  Mean Optical Densities: 0.105
  Percent Growth: −74%
[10]; Log10 Concentration −5.0
  Mean Optical Densities: 1.680
  Percent Growth: 72%
